# Experiments:
# [1] = target: CDK7/Cyclin H/MAT1 complex (Homo sapiens, UniProt P50613); experiment: CDK7 kinase inhibition assay (Caliper/LabChip EZ Reader); assay type: biochemical; settings: CDK7/Cyclin H/MAT1 6 nM, ATP 2 mM, 35 min at 27° C.
# Summary of the method: (§1)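 Caliper/LabChip mobility-shift kinase assays at 27° C. CDK9/Cyclin T1 8 nM with 2 μM 5-FAM-CDK9tide, 10 mM MgCl2, 15 min; CDK12/Cyclin K 50 nM with 5-FAM-CDK9tide 2 μM, 2 mM MgCl2, 3 hr; CDK2/Cyclin E1 0.5 nM with 5-FAM-CDK7tide 2 μM, 2 mM MgCl2, 35 min; CDK7 35 min.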
# [2] = target: T1, CDK12 (aa686-1082)/Cyclin K complex (Homo sapiens, UniProt Q9NYV4); experiment: CDK12 kinase inhibition assay (Caliper/LabChip EZ Reader); assay type: biochemical; settings: CDK12 (aa686-1082)/Cyclin K 50 nM, ATP 2 mM, 3 hr at 27° C.
# T1 construct: CDK12 (aa686-1082)/Cyclin K complex
# Summary of the method: as §1
# HCC70 cells = experiment: Inhibition of proliferation of HCC70 cells (CyQUANT Direct, 72 hour); assay type: cell-based, human; settings: read-out: Inhibition of Proliferation of HCC70 Cells (calculated IC50)
# Method: HCC70 cells: HCC70 cells are a cell line derived from human triple negative breast cancer. Representative compounds of the invention were tested at different concentrations (from 4 μM to […]; 0.5 log serial dilutions) for their ability to inhibit the proliferation of HCC70 cells. Known CDK inhibitors dinaciclib or N-((1S,3R)-3-((5-chloro-4-(1H-indol-3-yl) pyrimidin-2-yl)amino)cyclohexyl)-5-((E)-4-(dimethylamino)but-2-enamido)picolinamide and triptolide were used as positive controls. Cells were grown in ATCC-formulated RPMI-1640 Medium (ATCC 30-2001)+10% FBS. The cells were cultured at 37° C. in a humidified chamber in the presence of 5% CO2. Proliferation assays were conducted over a 72 hour time period. CyQUANT® Direct Cell Proliferation Assay (Life Technologies, Chicago, Ill. USA) was used to assess the anti-proliferative effects of the compounds following manufacturer's directions and utilizing the reagents supplied with the CyQUANT® Direct Cell kit.
# CDK9/Cyclin T1 complex = CDK9/Cyclin T1 complex (Homo sapiens, UniProt P50750); experiment: CDK9 kinase inhibition assay (Caliper/LabChip EZ Reader); assay type: biochemical; settings: CDK9/Cyclin T1 8 nM, ATP 2 mM, 15 min at 27° C.
# Summary of the method: as §1
# CDK2/Cyclin E1 complex = CDK2/Cyclin E1 complex (Homo sapiens, UniProt P24941); experiment: CDK2 kinase inhibition assay (Caliper/LabChip EZ Reader); assay type: biochemical; settings: CDK2/Cyclin E1 0.5 nM, ATP 2 mM, 35 min at 27° C.
# Summary of the method: as §1
# Chain of CDK7/Cyclin H/MAT1 complex (P50613 whole entry): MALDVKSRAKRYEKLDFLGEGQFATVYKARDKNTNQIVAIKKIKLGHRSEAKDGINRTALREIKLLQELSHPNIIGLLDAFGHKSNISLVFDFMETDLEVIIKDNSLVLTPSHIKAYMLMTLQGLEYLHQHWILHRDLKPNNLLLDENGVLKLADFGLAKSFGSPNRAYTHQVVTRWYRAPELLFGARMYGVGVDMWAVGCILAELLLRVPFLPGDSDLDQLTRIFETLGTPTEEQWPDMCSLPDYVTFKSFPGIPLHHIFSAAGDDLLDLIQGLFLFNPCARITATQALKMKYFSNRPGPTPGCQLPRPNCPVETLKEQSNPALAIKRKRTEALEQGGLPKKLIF
# Chain of CDK7/Cyclin H/MAT1 complex (P51946 whole entry partner): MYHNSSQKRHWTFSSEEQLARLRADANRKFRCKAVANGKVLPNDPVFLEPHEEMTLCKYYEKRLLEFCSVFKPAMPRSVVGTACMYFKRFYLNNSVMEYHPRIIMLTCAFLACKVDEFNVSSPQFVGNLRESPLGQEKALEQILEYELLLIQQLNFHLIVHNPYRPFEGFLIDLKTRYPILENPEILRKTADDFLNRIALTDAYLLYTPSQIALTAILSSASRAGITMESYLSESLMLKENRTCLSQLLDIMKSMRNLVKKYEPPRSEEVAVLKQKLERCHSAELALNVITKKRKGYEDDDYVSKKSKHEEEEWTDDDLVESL
# Chain of CDK7/Cyclin H/MAT1 complex (P51948 whole entry partner): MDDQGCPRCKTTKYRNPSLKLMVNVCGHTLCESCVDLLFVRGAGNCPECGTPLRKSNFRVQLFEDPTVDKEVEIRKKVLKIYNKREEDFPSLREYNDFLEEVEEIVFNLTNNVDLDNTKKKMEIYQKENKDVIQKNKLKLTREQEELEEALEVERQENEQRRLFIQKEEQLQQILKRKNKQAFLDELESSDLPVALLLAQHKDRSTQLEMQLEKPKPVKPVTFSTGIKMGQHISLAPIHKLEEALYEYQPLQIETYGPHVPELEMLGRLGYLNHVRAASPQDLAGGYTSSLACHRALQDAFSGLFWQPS
# Chain of CDK9/Cyclin T1 complex (P50750 whole entry): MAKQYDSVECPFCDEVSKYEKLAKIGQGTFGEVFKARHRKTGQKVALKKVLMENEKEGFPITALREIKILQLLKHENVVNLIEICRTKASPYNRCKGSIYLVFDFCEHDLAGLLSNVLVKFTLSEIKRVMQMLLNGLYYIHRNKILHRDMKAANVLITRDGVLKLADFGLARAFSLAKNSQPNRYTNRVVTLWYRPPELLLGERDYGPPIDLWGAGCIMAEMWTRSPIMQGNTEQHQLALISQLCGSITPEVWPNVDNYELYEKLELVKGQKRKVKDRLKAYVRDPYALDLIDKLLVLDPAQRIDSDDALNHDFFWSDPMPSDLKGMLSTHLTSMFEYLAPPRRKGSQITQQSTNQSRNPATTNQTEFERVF
# Chain of CDK9/Cyclin T1 complex (O60563 whole entry partner): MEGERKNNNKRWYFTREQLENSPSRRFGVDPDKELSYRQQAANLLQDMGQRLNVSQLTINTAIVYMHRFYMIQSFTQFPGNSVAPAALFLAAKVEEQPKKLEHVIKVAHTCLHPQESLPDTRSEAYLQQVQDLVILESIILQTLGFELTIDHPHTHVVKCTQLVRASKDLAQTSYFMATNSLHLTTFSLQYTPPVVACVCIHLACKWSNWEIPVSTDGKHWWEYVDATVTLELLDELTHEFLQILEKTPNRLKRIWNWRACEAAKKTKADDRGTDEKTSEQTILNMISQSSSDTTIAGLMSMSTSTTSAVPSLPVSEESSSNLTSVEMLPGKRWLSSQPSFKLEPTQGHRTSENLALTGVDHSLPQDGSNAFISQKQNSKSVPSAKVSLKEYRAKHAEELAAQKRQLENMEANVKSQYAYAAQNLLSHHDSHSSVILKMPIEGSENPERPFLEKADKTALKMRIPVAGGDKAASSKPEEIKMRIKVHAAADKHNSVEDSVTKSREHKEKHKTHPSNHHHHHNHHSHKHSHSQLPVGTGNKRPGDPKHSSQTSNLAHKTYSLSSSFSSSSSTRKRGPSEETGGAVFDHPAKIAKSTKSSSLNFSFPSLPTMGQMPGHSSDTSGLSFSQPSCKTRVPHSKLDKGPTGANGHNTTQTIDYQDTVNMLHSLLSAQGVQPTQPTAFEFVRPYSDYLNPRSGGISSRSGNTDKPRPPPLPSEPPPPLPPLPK
# T1 sequence (Q9NYV4 686-1082): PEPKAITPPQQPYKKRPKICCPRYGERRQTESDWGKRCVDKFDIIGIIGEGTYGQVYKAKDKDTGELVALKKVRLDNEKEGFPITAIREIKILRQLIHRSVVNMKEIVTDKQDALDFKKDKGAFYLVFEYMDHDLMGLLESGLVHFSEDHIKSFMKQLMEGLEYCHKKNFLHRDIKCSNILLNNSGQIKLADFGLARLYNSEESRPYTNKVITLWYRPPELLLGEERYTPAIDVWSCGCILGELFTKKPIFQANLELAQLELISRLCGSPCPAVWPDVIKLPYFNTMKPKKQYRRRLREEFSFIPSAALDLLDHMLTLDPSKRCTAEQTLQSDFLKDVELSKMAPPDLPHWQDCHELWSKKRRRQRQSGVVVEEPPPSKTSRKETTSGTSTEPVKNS
# T1 sequence (O75909 whole entry partner, the tested form may be a part): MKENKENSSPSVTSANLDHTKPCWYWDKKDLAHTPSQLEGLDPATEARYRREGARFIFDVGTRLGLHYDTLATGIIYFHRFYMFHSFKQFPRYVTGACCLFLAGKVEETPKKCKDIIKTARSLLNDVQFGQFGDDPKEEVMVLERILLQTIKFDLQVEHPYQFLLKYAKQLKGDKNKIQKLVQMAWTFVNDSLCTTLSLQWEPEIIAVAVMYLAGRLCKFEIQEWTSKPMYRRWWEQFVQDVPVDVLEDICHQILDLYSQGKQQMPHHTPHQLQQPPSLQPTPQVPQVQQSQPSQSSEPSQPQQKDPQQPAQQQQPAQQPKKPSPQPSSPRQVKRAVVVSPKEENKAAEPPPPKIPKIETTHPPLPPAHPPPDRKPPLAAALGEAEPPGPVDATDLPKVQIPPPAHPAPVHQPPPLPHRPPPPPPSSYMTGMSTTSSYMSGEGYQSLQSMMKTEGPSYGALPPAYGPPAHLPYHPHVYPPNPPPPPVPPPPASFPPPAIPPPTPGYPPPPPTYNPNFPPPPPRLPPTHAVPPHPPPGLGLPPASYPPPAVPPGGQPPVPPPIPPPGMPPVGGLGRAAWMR
Structure (SMILES),IC50 [1] [µM],IC50 [2] [µM],IC50 (CDK9/Cyclin T1 complex) [µM],IC50 (CDK2/Cyclin E1 complex) [µM],IC50 (HCC70 cells) [µM]
CC1(O)CCN(S(=O)(=O)c2ccc3c(-c4nc(NC5CCCNC5)ncc4C(F)(F)F)c[nH]c3c2)C1 (stereo not shown) [Compound 366],0.02 to 0.2,0.2 to 5,0.2 to 5,0.2 to 5,1 to 5
FC(F)(F)c1cnc(N[C@H]2CCCNC2)nc1-c1c[nH]c2cc(-c3cccc(Oc4ccccc4)c3)ccc12 [Compound 341],0.2 to 5,≥ 5,≥ 5,≥ 5,1 to 5
FC(F)(F)c1cnc(NC2CCCNC2)nc1-c1c[nH]c2cc(-c3ccc4c(c3)OCCO4)ccc12 (stereo not shown) [Compound 342],0.02 to 0.2,0.2 to 5,≥ 5,≥ 5,1 to 5
CC1CCNCC1Nc1ncc(C(F)(F)F)c(-c2c[nH]c3ccccc23)n1 (stereo not shown) [Compound 373],0.02 to 0.2,≥ 5,≥ 5,≥ 5,1 to 5
COC1CCN(C(=O)c2ccc3c(-c4nc(NC5CCCNC5)ncc4C(F)(F)F)c[nH]c3c2)C1 (stereo not shown) [Compound 280],0.02 to 0.2,0.2 to 5,≥ 5,≥ 5,0.1 to 1
Fc1cccc(-c2ccc3c(-c4nc(NC5CCCNC5)ncc4C(F)(F)F)c[nH]c3c2)c1 (stereo not shown) [Compound 345],0.2 to 5,≥ 5,≥ 5,≥ 5,1 to 5
CNC(=O)c1cccc2c(-c3nc(NC4CCCNC4)ncc3C(F)(F)F)cn(C)c12 (stereo not shown) [Compound 307],≥ 5,≥ 5,≥ 5,≥ 5,1 to 5
CC1CCNCC1Nc1ncc(C(F)(F)F)c(-c2c[nH]c3ccccc23)n1 (stereo not shown) [Compound 372],0.02 to 0.2,0.2 to 5,0.2 to 5,0.2 to 5,0.1 to 1
O=C(c1cccc(-c2ccc3c(-c4nc(NC5CCCNC5)ncc4C(F)(F)F)c[nH]c3c2)c1)N1CCCC1 (stereo not shown) [Compound 340],0.02 to 0.2,0.2 to 5,0.2 to 5,0.2 to 5,1 to 5
Cn1cc(-c2ccc3c(-c4nc(N[C@H]5CCCNC5)ncc4C(F)(F)F)c[nH]c3c2)c2cnc(C(F)(F)F)cc21 [Compound 320],0.02 to 0.2,0.2 to 5,–,–,1 to 5
Nc1nc2c(-c3ccc4c(-c5nc(NC6CCCNC6)ncc5C(F)(F)F)c[nH]c4c3)cccc2s1 (stereo not shown) [Compound 312],0.02 to 0.2,0.2 to 5,–,–,0.1 to 1
CCOc1ccccc1-c1ccc2c(-c3nc(NC4CCCNC4)ncc3C(F)(F)F)c[nH]c2c1 (stereo not shown) [Compound 327],0.02 to 0.2,0.2 to 5,–,–,0.1 to 1

# More lines, main results first:
IC50 [1] [µM],IC50 [2] [µM],IC50 (CDK9/Cyclin T1 complex) [µM],IC50 (CDK2/Cyclin E1 complex) [µM],Structure (SMILES),IC50 (HCC70 cells) [µM]
0.02 to 0.2,0.2 to 5,0.2 to 5,≥ 5,N#Cc1ccc2c(-c3nc(N[C@H]4CCCNC4)ncc3SC(F)F)c[nH]c2c1 [Compound 361],0.1 to 1
< 0.02,0.2 to 5,0.2 to 5,0.2 to 5,O=C(c1ccc2c(-c3nc(NC4CCCNC4)ncc3C(F)(F)F)c[nH]c2c1)N1CC(O)C(F)(F)C1 (stereo not shown) [Compound 308],0.1 to 1
< 0.02,0.2 to 5,0.2 to 5,0.2 to 5,FC(F)(F)Sc1cnc(NC2CCCNC2)nc1-c1c[nH]c2ccccc12 (stereo not shown) [Compound 305],1 to 5
< 0.02,0.2 to 5,0.2 to 5,0.2 to 5,FC(F)(F)c1cnc(N[C@H]2CCCNC2)nc1-c1c[nH]c2cc(-c3nccs3)ccc12 [Compound 332],< 0.1
< 0.02,0.2 to 5,0.2 to 5,0.2 to 5,N#Cc1ccc2c(-c3nc(N[C@@H]4CNCC[C@H]4F)ncc3C(F)(F)F)c[nH]c2c1 [Compound 351],< 0.1
0.02 to 0.2,0.2 to 5,≥ 5,0.2 to 5,FC(F)(F)c1cnc(N[C@H]2CCCNC2)nc1-c1c[nH]c2cc(-c3cccc4cnccc34)ccc12 [Compound 344],0.1 to 1
< 0.02,0.2 to 5,0.2 to 5,0.2 to 5,O=C(c1ccc2c(-c3nc(NC4CCCNC4)ncc3C(F)(F)F)c[nH]c2c1)N1CCC(O)(C(F)(F)F)C1 (stereo not shown) [Compound 300],0.1 to 1
< 0.02,0.2 to 5,0.2 to 5,0.2 to 5,O=S(=O)(CF)c1ccc2c(-c3nc(NC4CCCNC4)ncc3C(F)(F)F)c[nH]c2c1 (stereo not shown) [Compound 365],0.1 to 1
< 0.02,0.2 to 5,0.2 to 5,0.2 to 5,CNC(=O)c1ccc2c(-c3nc(NC4CCCNC4)ncc3C(F)(F)F)c[nH]c2n1 (stereo not shown) [Compound 297],< 0.1
< 0.02,0.2 to 5,0.2 to 5,0.2 to 5,O=S(=O)(c1ccc2c(-c3nc(NC4CCCNC4)ncc3C(F)(F)F)c[nH]c2c1)C(F)F (stereo not shown) [Compound 375],0.1 to 1
< 0.02,0.2 to 5,0.2 to 5,0.2 to 5,FC(F)(F)c1cnc(NC2CCCNC2)nc1-c1c[nH]c2cc(-c3cnccn3)ccc12 (stereo not shown) [Compound 328],< 0.1
< 0.02,0.2 to 5,0.2 to 5,0.2 to 5,CN(C)S(=O)(=O)c1ccc2c(-c3nc(NC4CCCNC4)ncc3C(F)(F)F)c[nH]c2c1 (stereo not shown) [Compound 357],1 to 5
< 0.02,0.2 to 5,0.2 to 5,0.2 to 5,Cc1ccncc1-c1ccc2c(-c3nc(NC4CCCNC4)ncc3C(F)(F)F)c[nH]c2c1 (stereo not shown) [Compound 336],< 0.1
< 0.02,0.2 to 5,0.2 to 5,≥ 5,N#Cc1ccc2c(-c3nc(N[C@@H]4CCC5(CCC5)NC4)ncc3C(F)(F)F)c[nH]c2c1 [Compound 377],0.1 to 1
< 0.02,0.2 to 5,0.2 to 5,0.2 to 5,Cc1c(-c2ccc3c(-c4nc(NC5CCCNC5)ncc4C(F)(F)F)c[nH]c3c2)c[nH]c(=O)c1C#N (stereo not shown) [Compound 311],1 to 5
< 0.02,0.2 to 5,≥ 5,≥ 5,Cn1cc(-c2ccc3c(-c4nc(NC5CCCNC5)ncc4C(F)(F)F)c[nH]c3c2)ccc1=O (stereo not shown) [Compound 321],0.1 to 1
< 0.02,0.2 to 5,0.2 to 5,0.2 to 5,FC(F)(F)c1cnc(NC2CCCNC2)nc1-c1c[nH]c2cc(-c3ccc4[nH]cnc4c3)ccc12 (stereo not shown) [Compound 313],0.1 to 1

# From patent US20230000870A1, “METHODS OF TREATING CANCER IN BIOMARKER-IDENTIFIED PATIENTS WITH INHIBITORS OF CYCLIN-DEPENDENT KINASE 7 (CDK7)” (Syros Pharmaceuticals, Inc., priority 2019, published 2023)
